Earlier results, collected in patent US8791105B2, “Methods for alleviating chronic pain and improving performance of cattle undergoing dehorning or castration” (Kansas State University Research Foundation, priority 2010, dated 2014).

Columns and labels:
[1] = in vivo; cited from earlier work
[2] = plasma; humans; cited from earlier work

Compound	plasma half-life previously reported [1] [min]	reported minimum effective concentration [2] [µg/mL]
O=C(O)c1ccccc1O [salicylate]	30	
1-(aminomethyl) cyclohexane acetic acid [gabapentin]		2
